“Also recorded” adds a separate entry of the source.
Columns and labels:
Assay type in all cases: physicochemical
[1] = Competitive suspension equilibrations of Form A + Form B composites; conditions: stirred overnight
Protocol: Objective: Determine the fates of the Form A and Form B when equilibrated in ethanol under anhydrous and aqueous conditions at 20° C. and 40° C.
Procedure: Composites, prepared from equimolar amounts of Form A and Form B were charged to separate vials and ethanol (13 vol) or ethanol/water (10/3 v/v, 13 vol) were added. The two pairs of mixtures were stirred at 20° C. or 40° C. overnight.

[2] = Effect of elevated humidity, desiccator analysis at equilibrium humidity; conditions: for Δwt. Percent: RH 75-80%; for Output Form designation (XRPD): after exposure to 75 to 80% RH at 18 to 23° C. for 72 h
Protocol: The effect of elevated humidity (75 to 80% RH at 18 to 23° C.) on the thermally dehydrated Form A residue from the preceding experiment, was examined via conventional desiccator analysis at equilibrium humidity. Compound 1 Form A (ca. 16 mg) was heated at a rate of +10° C./min from 20 to 160° C. to include the first endothermic event and exclude the second event (see FIG. 2). The content of the spent crucible was exposed to 75 to 80% RH (relative humidity) at 18 to 23° C. for 72 h. The corresponding weight changes were recorded and the internal conditions of the humidity enclosures were monitored. The absorbent increased in weight (refer to Table 4), but this was not accompanied by a significant change in the diffraction pattern, or dehydration event by DSC.

[3] = Anhydrous suspension equilibrations of Form A at 20° C. and 40° C.; conditions: stirred 7 to 10 days at 40° C.
Protocol: Objective: Examine the effect of suspension equilibration of compound 1 under anhydrous conditions at 20° C. and 40° C. and determine the physical form of the products.
Procedure: Compound 1 (ca 50 mg, 1.0 wt) and the appropriate solvent (1000 μl, 20 vol) were charged to separate vessels and two parallel banks of experiments were stirred for 7 to 10 days at 20° C. and 40° C. After this time the products were cooled, isolated by filtration, washed with recycled maturation solvent, dried under reduced pressure at 20° C. and analyzed by XRPD for evidence of alternative crystalline forms.

[4] = Suspension equilibration of single Form A and B under production conditions; conditions: 40° C., stirred overnight
Protocol: Objective: Determine the fates of single Form A and B when equilibrated in ethanol under anhydrous and aqueous conditions at 40° C.
Procedure: Form B and Form A were charged to separate vials. Ethanol/water (10/3 v/v, 13 vol) and ethanol (13 vol) were added, respectively. The mixtures were stirred at 20° C. or 40° C. overnight.

[5] = Dynamic Vapor Sorption (DVS) analyses; conditions: for Hygroscopicity by DVS: 25° C., RH 0-90-0%; for Weight lost during the pre-equilibration: DVS at 25° C., drying 0% RH for 120 min
Protocol: Use the following parameters: • Equilibrium: dm/dt: 0.002%/min. (for min: 10 min and max: 180 min). • Drying: 0% RH for 120 min • RH (%) measurement step: 5% • RH (%) measurement step scope: 0-90-0% The criteria for hygroscopicity evaluation are listed in below: DVS analysis was performed on compound 1 Form A and compound 1 Form B to determine the degree of hygroscopicity. The results are provided in FIGS. 13A, FIG. 13B, FIG. 14A and FIG. 14B.

[6] = Thermal investigations (heating in DSC, residue analysed by XRPD or 1H NMR)
Protocol: A Mettler Toledo DSC 821 instrument was used for the thermal analysis operating with STARe™ software. The analysis was conducted in […], open aluminum pans, under nitrogen and sample sizes ranged from 1 to 10 mg. Typical analysis method was 20 to 250 at 10° C./minute.
Procedure: First experiment-A sample of compound 1 Form A containing 5.1% w/w water and 0.2% w/w ethanol (ca. 16 mg) was heated at a rate of +10° C./min from 20 to 160° C. to include the first endothermic event and exclude the second event (refer to FIG. 2).
Procedure: First event: A sample of compound 1 Form C (ca. 7 mg) was heated at a rate of +10° C./min from 20 to 120° C. to include the first endothermic event (refer to FIG. 9). The content of the spent crucible was expressed, the residue was analyzed by XRPD and the diffraction pattern was compared to the input diffraction pattern.
Third event: A sample of compound 1 Form C (ca. 5 mg) was heated at a rate of +10° C./min from 20 to 150° C. to include the multiple thermal events (refer to FIG. 9). The content of the spent crucible was expressed, the residue was analyzed by XRPD and the diffraction pattern was compared to the input diffraction pattern.
Procedure: First event: a sample of compound 1 Form E (ca. 8 mg) was heated at a rate of +10° C./min from 20 to 160° C. to include the first endothermic event and exclude the second event (refer to FIG. 11). The content of the spent crucible was expressed, the residue was analyzed by XRPD and the diffraction pattern was compared to the input diffraction pattern (see FIG. 12).

[7] = heated at +10° C./min from 20 to 160° C.

O=C(NO)c1cnc(N2C[C@@H]3[C@H](C2)[C@H]3NCc2ccc3cc(F)ccc3n2)nc1 [Form A + Form B (1/1 w/w)]
Output form (XRPD) ([1]; Ethanol, 20° C.): B (Major
Output form (XRPD) ([1]; Ethanol, 20° C., listed as composite Form A+B): near complete conversion into Form B
Output form (XRPD) ([1]; Ethanol, 40° C.): Form B
Output form (XRPD) ([1]; Ethanol, 40° C., listed as composite Form A+B): complete turnover into single Form B
Output form (XRPD) ([1]; Ethanol/water (10/3 v/v), 20° C.): Form A
Output form (XRPD) ([1]; Ethanol/water (10/3 v/v), 20° C., listed as composite Form A+B): single Form A
Output form (XRPD) ([1]; Ethanol/water (10/3 v/v), 40° C.): Form A
Output form (XRPD) ([1]; Ethanol/water (10/3 v/v), 40° C., listed as composite Form A+B): single Form A

O=C(NO)c1cnc(N2C[C@@H]3[C@H](C2)[C@H]3NCc2ccc3cc(F)ccc3n2)nc1 [Form A after heating up to 160° C.]
Δwt. Percent ([2]; 0 h @ 18-23° C.): 0.0% w/w
Δwt. Percent ([2]; 1 h @ 18-23° C.): 14.6% w/w
Δwt. Percent ([2]; 24 hr @ 18-23° C.): 13.2% w/w
Δwt. Percent ([2]; 72 hr @ 18-23° C.): 14.6% w/w
Output Form designation (XRPD) [2]: Isostructural
Output Form designation (XRPD) ([2]; listed as Form A dehydrate): did not revert back to Form A

O=C(NO)c1cnc(N2C[C@@H]3[C@H](C2)[C@H]3NCc2ccc3cc(F)ccc3n2)nc1 [Form A, N-hydroxy 2-{6-[(6-fluoro-quinolin-2-ylmethyl)-amino]-3-aza-bicyclo[3.1.0]hex-3-yl}pyrimidine-5-carboxamide]
Output form @ 40° C. (XRPD) ([3]; 1,4-dioxane (20 vol)): A + B
Output form @ 40° C. (XRPD) ([3]; 2-Propanol (20 vol)): A + B
Output form @ 40° C. (XRPD) ([3]; Acetone (20 vol)): A + B
Output form @ 40° C. (XRPD) ([3]; Anisole (20 vol)): A + B
Output form @ 40° C. (XRPD) ([3]; Butanol (20 vol)): A + B
Output form @ 40° C. (XRPD) ([3]; Chlorobenzene (20 vol)): A + B
Output form @ 40° C. (XRPD) ([3]; Cumene (20 vol)): A + B
Output form @ 40° C. (XRPD) ([3]; Dichloromethane (20 vol)): A + B
Output form @ 40° C. (XRPD) ([3]; Ethyl acetate (20 vol)): A + B
Output form @ 40° C. (XRPD) ([3]; Ethyl ether (20 vol)): A + B
Output form @ 40° C. (XRPD) ([3]; Heptane (20 vol)): A + B
Output form @ 40° C. (XRPD) ([3]; Isopropyl acetate (20 vol)): A + B
Output form @ 40° C. (XRPD) ([3]; Methyl acetate (20 vol)): A + B
Output form @ 40° C. (XRPD) ([3]; Nitromethane (20 vol)): A + B
Output form @ 40° C. (XRPD) ([3]; Propionitrile (20 vol)): A + B
Output form @ 40° C. (XRPD) ([3]; Tetrahydrofuran (20 vol)): A + B
Output form @ 40° C. (XRPD) ([3]; Trifluorotoluene (20 vol)): A + B
Output form @ 40° C. (XRPD) ([3]; tert-Butylmethyl ether (20 vol)): A + B
Output form (XRPD) ([4]; Ethanol): converted to Form B
Output form (XRPD) ([4]; Ethanol, listed as Form A (A0822-170-AD1)): Form B
Hygroscopicity by DVS [5]: neither being hygroscopic; also recorded: not hygroscopic
Weight lost during the pre-equilibration [5]: ~0.25 % w/w
Form of residue after heating (XRPD) [6, 7]: consistent with Form B
State after heating (1H NMR) ([6]; heated at +10° C./min from 20 to 230° C., cooled): extensive degradation
Large exothermic event (DSC, confirmed by 1H NMR) ([6]; post heating to 200° C.): consistent with degradation

O=C(NO)c1cnc(N2C[C@@H]3[C@H](C2)[C@H]3NCc2ccc3cc(F)ccc3n2)nc1 [Form B, N-hydroxy 2-{6-[(6-fluoro-quinolin-2-ylmethyl)-amino]-3-aza-bicyclo[3.1.0]hex-3-yl}pyrimidine-5-carboxamide]
Output form (XRPD) ([4]; Ethanol/water (10/3 v/v)): mixture Form A and B
Output form (XRPD) ([4]; Ethanol/water (10/3 v/v), listed as Form B (A0822-170-AC1)): A + B
Hygroscopicity by DVS [5]: neither being hygroscopic
Form conversion at high water activity ([5]; 40° C., high water activity, stated among the DVS observations): promoted the conversion into Form A
Weight lost during the pre-equilibration [5]: 0.03 % w/w

O=C(NO)c1cnc(N2C[C@@H]3[C@H](C2)[C@H]3NCc2ccc3cc(F)ccc3n2)nc1 [Form C, N-hydroxy 2-{6-[(6-fluoro-quinolin-2-ylmethyl)-amino]-3-aza-bicyclo[3.1.0]hex-3-yl}pyrimidine-5-carboxamide]
Form of residue after heating (XRPD) ([6]; heated at +10° C./min from 20 to 120° C.): consistent with an isomorphic desolvate/dehydrate
Form of residue after heating (XRPD) ([6]; heated at +10° C./min from 20 to 150° C.): converted into isostructural Form B

O=C(NO)c1cnc(N2C[C@@H]3[C@H](C2)[C@H]3NCc2ccc3cc(F)ccc3n2)nc1 [Form E, N-hydroxy 2-{6-[(6-fluoro-quinolin-2-ylmethyl)-amino]-3-aza-bicyclo[3.1.0]hex-3-yl}pyrimidine-5-carboxamide]
Form of residue after heating (XRPD) [6, 7]: consistent with Form B

From patent US11780822B2, “HDAC inhibitor solid state forms” (Viracta Subsidiary, Inc., priority 2019, dated 2023)
